Common to all, as to type: cell-based
Experiment [1] has as its system human hair follicle in the anagen stage. Kind of experiment: Investigation of hair shaft elongation (organ culture of human hair follicle). As to conditions: 1.0×10^-5 mol/L, 5-day incubation, 9 hair follicles per group. As to the method: A hair follicle in the anagen stage was isolated from a human scalp under a stereoscopic microscope observation, washed with “a medium prepared by adding penicillin, streptomycin and fungizone to Williams E medium (Gibco)” (hereinafter referred to as a (−) medium) and then examined for its length.
A medium obtained by supplementing the (−) medium further with 10 ng/ml hydrocortisone, 10 μg/ml insulin, 10 ng/ml sodium selenite and 10 μg/ml transferring (hereinafter ter referred to as a (+) medium) was dispensed in an aliquot of 1 ml per well into a 24-well microplate. The hair follicle described above was precipitated therein and incubated overnight at 37° C. in the presence of 5% CO2 (preincubation).
The elongation of the hair shaft in a hair follicle was determined by inspecting the microplate described above visually using an inverted microscope with a micrometer attached thereto.
A DMSO solution of a test material was added to a (−) medium for preparation. The final concentrations of the test material and DMSO were 1.0×10^−5 mol/L and 0.1%, respectively.
Only DMSO was added to a (−) medium at the final concentration of 0.1% for preparation.
The culture medium of the hair follicle groups described above was replaced each with the test materialcontaining medium or negative control medium, and the incubation was continued further for 5 days at 37° C. in the presence of 5% CO2. The length of each hair after 5-day incubation was measured, and the means were compared with each other.

The nature of experiment [2]: Hair regrowth inducing effect test by cell cluster-accompanied culture method. As to conditions: Homo sapiens, Human dermal papilla cell, 48 h, 2 days, Alamer Blue fluorescence, relative to negative control, read-out: Relative respiration level (%). How it is done:
The hair regrowth inducing effect was evaluated using, as an index, an increase in respiration level of a cell cluster formed under the coexistence of a normal human outer root sheath cell and a normal human dermal papilla cell.
Normal human dermal papilla cell (DP): A DP obtained by a primary culture from a head hair was subcultured three times in a 10% FBS-supplemented DMEM medium in a 75 cm^2 incubation flask coated with Type I collagen, and then stored while being frozen in a liquid nitrogen using a cell cryopreservation solution (Cellbanker II: DIA-IATRON).
Normal human outer root sheath cell (ORS): An ORS obtained by a primary culture from a head hair was subcultured three times in a SFM medium in a 75 cm^2 incubation flask coated with Type I collagen, and then stored while being frozen in a liquid nitrogen using Cellbanker II.
The DP and ORS cells stored as frozen were thawed, washed with an ice-cooled SFM medium, dispersed in the same medium and subjected to an accurate cell density measurement using a hemocytometer. Each cell density was adjusted at 5×10^4 cells/ml accurately, and the cell dispersions in equal volumes were combined under cooling with ice. 80 μl aliquots of the combined cell suspending SFM medium were inoculated into individual wells of a 96-well microplate (Sumilon celltight, spheroid 96U plate), and incubated for 2 days. The cell count in a single well upon inoculation was 2,000 cells for each of DP and ORS, thus 4,000 cells in total.
Each 80 μl of a test material-supplemented William's E(+) medium (William's E medium supplemented with 10 μg/ml transferrin, 10 ng/ml hydrocortisone, 10 μg/ml insulin and 10 ng/ml sodium selenite) was added to each well and incubated further for 2 days.
The test material-supplemented William's E(+) medium added to each well was prepared by dissolving the test material in ethanol at a concentration of 10 mM or 100 mM and adding to William's E(+) medium at 0.2% each. Accordingly, the final concentration of the test material in each well was 10 μM or 100 μM, and each final concentration of ethanol was 0.1%.
As a negative control, 80 μl of William's E(+) medium containing 0.2% ethanol was added (final concentration of ethanol was 0.1%).
Alamer Blue, SFM medium and William's E(+) medium were mixed in 2:1:1 ratio, warmed at 37° C. and then 40 μl aliquots were added to individual wells and allowed to react for 6 hours at 37° C. After completion of the reaction, 100 μl aliquots were taken from individual wells, and transferred to a white 96-well plate for fluorescence measurement (Opaque Plate).
A fluorometer (Labsystems Fluoroskan II) was used at the excitation wavelength of 544 nm and the fluorescent wavelength of 590 nm to measure the fluorescence intensity of each well, from which the fluorescent intensity of a cell-free reaction mixture (i.e., the reaction mixture treated similarly using a cell-free SFM medium) was subtracted to obtain a respiration level under each condition. From thus obtained respiration level, a relative respiration level(%) was calculated according to the following equation.
Relative respiration level(%)={Respiration level (test material)}/{Respiration level (negative control)}×100

The subject of experiment [3] is cultured human trichoepithelial cell. Kind of experiment: Trichoepithelial cell growth promoting effect test. To be noted: 1.0×10^-6 mol/L, 2 days, Alamer Blue; negative control = 0, positive control (insulin + hydrocortisone) = 1. As to the method: According to the method described in JP-A-2000-63242, a cultured trichoepithelial cell of a human scalp was used to measure a trichoepithelial cell growth promoting effect.
From a human scalp obtained as a by-product of a surgical operation, a hair follicle at a anagen stage in a hair cycle was isolated mechanically under the observation by a stereoscopic microscope. This hair follicle at a anagen stage was treated in a Dulbecco's modified MEM (DMEM) supplemented with 1000 U/ml dispase and 0.2% collagenase for 30 minutes at 37° C. Adipose tissues, connective tissue root sheath and dermal papilla were removed therefrom using the tip of a syringe needle and the hair follicle was treated in a phosphate buffer containing 0.05% EDTA for 5 minutes at 37° C.
Subsequently, the hair follicle was placed on a culture dish coated with Type I collagen, and incubated in a KGM medium (serum-free keratinocyte growth medium). After incubation for 4 to 5 days, the culture medium was exchanged upon ensuring the adhesion of the hair follicle on the bottom face of the culture dish and the growth of the trichoepithelial cell, and thereafter the culture medium was exchanged every 2 days.
After the cell thus proliferated was treated in a phosphate buffer containing 0.05% trypsin and 0.02% EDTA for 5 minutes at 37° C., the reaction was quenched using an equal volume of 0.1% trypsin inhibitor and the cell was recovered by centrifugation (800×g, 5 minutes).
Subsequently, the cell was suspended in the serum-free culture medium described above, and inoculated at the density of 5000 cells/cm^2 onto a culture dish coated with Type I collagen. The culture medium was exchanged every 2 days until the cell became subconfluent. After treating the cell again in the phosphate buffer containing 0.05% trypsin and 0.02% EDTA for 5 minutes at 37° C., the reaction was quenched using an equal volume of 0.1% trypsin inhibitor and the cell was recovered by centrifugation (800×g, 5 minutes). The human trichoepithelial cell thus obtained was adjusted at the concentration of 100,000 cells/ml with a cell cryopreservation solution (Cellbanker: DIA-IATRON) added thereto, and dispensed into each freezing tube as a 100,000 cells (1 ml), which was then stored as being frozen. The cell counts described above were calculated using a hemocytometer.
After inoculating the trichoepithelial cell obtained in the step described above into a culture flask, the cell was treated with a phosphate buffer containing 0.25% trypsin and 0.02% EDTA. The reaction was quenched with 0.1% trypsin inhibitor, and then the mixture was centrifuged at 1,500 rpm for 5 minutes. The supernatant was removed, and the precipitated cell pellet was combined with a KGM medium to prepare a cell suspension.
The cell suspension in the KGM medium was inoculated to a Type I collager-coated 96-well microplate (Falcon) at 3,000 cells (0.2 ml)/well and allowed to stand for about 20 minutes at room temperature until the cell went down onto the bottom. Then, the cell was cultured for 1 day in an incubator in the presence of 5% CO2 at 37° C., whereby obtaining an intended cultured human trichoepithelial cell.
A test material and DMSO were added to a KGM medium at the final concentrations of 1.0×10^−6 mol/L and 0.1%, respectively.
Negative control: DMSO was added to a KGM medium at the final concentration of 0.1%.
Positive control: Insulin and hydrocortisone were dissolved in DMSO, which was then added to a KGM medium. The final concentrations of insulin, hydrocortisone and DMSO were 5 μg/ml, 0.5 μg/ml and 0.1%, respectively.
The KMG medium in the 96-well microplate employed for preparing the cultured human trichoepithelial cell in Step A described above was exchanged with a test material-supplemented medium or a control medium (200 μl/well), and the incubation was continued for 2 days in the presence of 5% CO2 at 37° C. […]

As to `CCCCCCCCCCCCCCCCCCC(O)CO` (stereo not shown) [Compound 9, 1,2-eicosanediol], in experiment [1], the “Mean of hair shaft elongation” value is 1.5 mm. In experiment [2], the activity at 10 µM stood at 130% and the activity at 100 µM amounted to 132%. The “Cell growth promoting index” value in experiment [3] was 1.2.
`CCCCCCCCCCCCCCCCCCOCC(C)(C)CO` [Compound 8, 2,2-Dimethyl-3-octadecyloxy-1-propanol]: the “Mean of hair shaft elongation” value in experiment [1] stood at 1.7 mm. For the same compound, in experiment [2], the activity at 10 µM was 106% and the activity at 100 µM stood at 112%. In experiment [3], the “Cell growth promoting index” value worked out at 1.2.
Regarding `CCCCCCCCCCCCCCCCCC(=O)OCC(CO)OC` (stereo not shown) [Compound 6, 3-Hydroxy-2-methoxypropyl stearate], in experiment [1], the “Mean of hair shaft elongation” value came out at 1.7 mm. In experiment [2], the activity at 10 µM worked out at 101% and the activity at 100 µM worked out at 102%. The “Cell growth promoting index” value in experiment [3] is listed as 1.3.
Consider `CCCCCCCCCCCCCCCCOC(CO)CO` [Compound 7, 2-Hexadecyloxy-1,3-propanediol], for which the “Mean of hair shaft elongation” value in experiment [1] was determined as 1.2 mm. Besides, in experiment [2], the activity at 10 µM was 122% and the activity at 100 µM came out at 129%. The “Cell growth promoting index” value in experiment [3] is recorded as 1.5.

(Values after patent publication US20030198614A1, “Hair growers” (priority 2000, published 2003).)
